Measurements from ChEMBL document CHEMBL4507297, “Data for DCP probe PF-04457845” (2021).

Tests used:
Conditions in all cases: Compound concentration 10.0 uM
[1] = target: Kappa-type opioid receptor (Homo sapiens) (UniProt P41145)
[2] = target: Alpha-2B adrenergic receptor (Homo sapiens) (UniProt P18089); assay: alpha2B (h) CEREP ligand profiling
[3] = target: Glutamate receptor ionotropic, kainate 2 (Homo sapiens) (UniProt Q13002); assay: Kainate CEREP ligand profiling
[4] = target: T1, Muscarinic acetylcholine receptor M1 (Homo sapiens) (UniProt P11229); assay: M1 (h) CEREP ligand profiling
T1 sequence (whole entry): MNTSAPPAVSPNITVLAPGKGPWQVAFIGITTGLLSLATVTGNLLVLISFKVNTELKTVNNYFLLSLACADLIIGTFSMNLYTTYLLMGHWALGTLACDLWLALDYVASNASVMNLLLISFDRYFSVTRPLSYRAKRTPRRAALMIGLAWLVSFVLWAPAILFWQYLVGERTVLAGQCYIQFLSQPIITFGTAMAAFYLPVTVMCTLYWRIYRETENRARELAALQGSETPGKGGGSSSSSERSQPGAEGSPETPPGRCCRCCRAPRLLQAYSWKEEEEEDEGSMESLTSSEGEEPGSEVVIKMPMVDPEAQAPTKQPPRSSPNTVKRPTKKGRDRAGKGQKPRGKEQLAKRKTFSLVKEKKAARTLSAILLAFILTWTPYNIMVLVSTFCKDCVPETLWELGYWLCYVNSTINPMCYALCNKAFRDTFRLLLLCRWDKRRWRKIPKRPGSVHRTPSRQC

[5] = target: Type-1 angiotensin II receptor (Homo sapiens) (UniProt P30556); assay: AT1 (h) CEREP ligand profiling
[6] = target: Sodium-dependent noradrenaline transporter (Homo sapiens) (UniProt P23975); assay: NE transporter (h) CEREP ligand profiling

Measured: inhibition

Chain of Glutamate receptor ionotropic, kainate 2 (Homo sapiens) (Q13002 whole entry): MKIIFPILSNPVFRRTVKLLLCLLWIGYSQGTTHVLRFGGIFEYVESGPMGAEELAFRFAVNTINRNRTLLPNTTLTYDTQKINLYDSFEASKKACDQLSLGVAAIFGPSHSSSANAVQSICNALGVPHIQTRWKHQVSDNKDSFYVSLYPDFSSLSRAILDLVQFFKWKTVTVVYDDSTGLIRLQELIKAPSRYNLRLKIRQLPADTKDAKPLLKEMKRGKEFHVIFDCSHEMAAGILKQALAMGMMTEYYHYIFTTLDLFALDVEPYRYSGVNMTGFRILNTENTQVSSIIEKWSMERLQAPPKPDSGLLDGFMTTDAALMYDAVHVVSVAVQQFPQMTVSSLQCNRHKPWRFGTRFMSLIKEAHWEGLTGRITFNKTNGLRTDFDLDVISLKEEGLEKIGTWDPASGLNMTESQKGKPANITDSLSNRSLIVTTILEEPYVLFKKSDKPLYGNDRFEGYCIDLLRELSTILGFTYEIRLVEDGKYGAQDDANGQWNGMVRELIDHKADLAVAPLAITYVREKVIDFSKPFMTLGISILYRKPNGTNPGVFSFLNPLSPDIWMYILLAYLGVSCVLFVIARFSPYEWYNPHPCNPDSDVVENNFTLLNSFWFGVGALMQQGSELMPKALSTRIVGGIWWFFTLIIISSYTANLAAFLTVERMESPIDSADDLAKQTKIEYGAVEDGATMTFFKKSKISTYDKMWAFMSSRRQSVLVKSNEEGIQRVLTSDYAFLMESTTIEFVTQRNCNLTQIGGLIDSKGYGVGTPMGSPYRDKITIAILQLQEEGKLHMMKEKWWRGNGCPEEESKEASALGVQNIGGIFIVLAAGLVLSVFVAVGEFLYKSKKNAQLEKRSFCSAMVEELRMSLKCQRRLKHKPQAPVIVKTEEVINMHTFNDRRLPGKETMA
Chain of Kappa-type opioid receptor (Homo sapiens) (P41145 whole entry): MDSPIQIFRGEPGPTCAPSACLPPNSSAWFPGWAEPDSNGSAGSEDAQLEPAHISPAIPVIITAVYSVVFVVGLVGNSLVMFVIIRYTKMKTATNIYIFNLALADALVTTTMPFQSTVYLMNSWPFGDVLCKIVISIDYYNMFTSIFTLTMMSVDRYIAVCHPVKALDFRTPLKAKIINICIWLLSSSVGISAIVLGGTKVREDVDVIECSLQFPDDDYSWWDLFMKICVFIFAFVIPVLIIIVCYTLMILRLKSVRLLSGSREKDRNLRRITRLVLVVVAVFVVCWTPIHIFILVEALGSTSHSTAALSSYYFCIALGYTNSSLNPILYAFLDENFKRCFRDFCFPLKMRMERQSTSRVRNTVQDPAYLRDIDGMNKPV
Chain of Alpha-2B adrenergic receptor (Homo sapiens) (P18089 whole entry): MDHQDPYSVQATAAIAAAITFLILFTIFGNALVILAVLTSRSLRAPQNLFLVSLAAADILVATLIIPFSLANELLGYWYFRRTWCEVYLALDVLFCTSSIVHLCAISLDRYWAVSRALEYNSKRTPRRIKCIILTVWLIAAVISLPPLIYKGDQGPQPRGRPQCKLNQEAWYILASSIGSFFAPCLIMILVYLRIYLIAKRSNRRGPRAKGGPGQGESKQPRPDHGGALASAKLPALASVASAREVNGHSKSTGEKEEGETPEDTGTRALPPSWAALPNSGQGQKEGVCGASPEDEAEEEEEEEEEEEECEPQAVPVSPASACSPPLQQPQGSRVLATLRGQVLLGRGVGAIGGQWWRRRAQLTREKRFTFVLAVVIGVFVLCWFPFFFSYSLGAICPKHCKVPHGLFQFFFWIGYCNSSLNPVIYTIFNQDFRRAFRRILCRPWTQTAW
Chain of Sodium-dependent noradrenaline transporter (Homo sapiens) (P23975 whole entry): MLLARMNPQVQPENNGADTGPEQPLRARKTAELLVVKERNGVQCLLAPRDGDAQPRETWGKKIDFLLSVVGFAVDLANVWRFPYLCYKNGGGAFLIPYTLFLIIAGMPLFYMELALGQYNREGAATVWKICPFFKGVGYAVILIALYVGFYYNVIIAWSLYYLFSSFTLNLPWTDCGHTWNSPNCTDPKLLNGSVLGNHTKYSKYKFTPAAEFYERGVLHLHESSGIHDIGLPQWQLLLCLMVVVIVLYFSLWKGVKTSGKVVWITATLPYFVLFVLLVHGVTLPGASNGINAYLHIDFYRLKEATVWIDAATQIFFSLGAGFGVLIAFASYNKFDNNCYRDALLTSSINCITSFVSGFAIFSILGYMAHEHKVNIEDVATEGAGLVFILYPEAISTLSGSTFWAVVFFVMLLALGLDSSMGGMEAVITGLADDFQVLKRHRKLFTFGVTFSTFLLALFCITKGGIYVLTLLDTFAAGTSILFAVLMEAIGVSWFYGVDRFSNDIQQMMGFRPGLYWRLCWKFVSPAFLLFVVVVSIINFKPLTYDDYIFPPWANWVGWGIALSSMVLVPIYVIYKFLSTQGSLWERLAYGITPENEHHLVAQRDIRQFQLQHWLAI
Chain of Type-1 angiotensin II receptor (Homo sapiens) (P30556 whole entry): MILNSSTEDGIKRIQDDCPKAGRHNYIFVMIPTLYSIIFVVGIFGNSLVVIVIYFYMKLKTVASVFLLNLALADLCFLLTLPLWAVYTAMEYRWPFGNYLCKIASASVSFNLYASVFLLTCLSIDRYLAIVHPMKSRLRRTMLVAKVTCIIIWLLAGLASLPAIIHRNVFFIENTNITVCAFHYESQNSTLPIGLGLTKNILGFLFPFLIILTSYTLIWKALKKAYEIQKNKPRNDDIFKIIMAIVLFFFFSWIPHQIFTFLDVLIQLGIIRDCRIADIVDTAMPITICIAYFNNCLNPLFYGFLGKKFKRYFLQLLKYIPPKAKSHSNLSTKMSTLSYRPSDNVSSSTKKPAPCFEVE

O=C(Nc1cccnn1)N1CCC(=Cc2cccc(Oc3ccc(C(F)(F)F)cn3)c2)CC1
inactive: [1] 30.5% | [2] 4% | [3] 2% | [4] 36% | [5] -10% | [6] -5%
